Results reported in patent publication US11622980B2, “Compositions comprising prebiotics and probiotics” (OPTIBIOTIX LIMITED, priority 2017, dated 2023).
“Also recorded” adds a separate entry of the source. Like-named read-outs stand apart in the source and are kept apart here.

How the values were obtained:
L. rhamnosus ATCC 53103 [1] = assay: Organic acid (SCFA and lactate) synthesis in pH controlled faecal batch culture; assay type: cell-based, Lactobacillus rhamnosus; details: pH controlled faecal batch cultures with LR
From the text: Lastly, determination of faecal microbiome activity through organic acid (SOFA and lactate) measurement was to be conducted at each sampling point. Information will indicate potential fermentation rates of each novel prebiotic.
(§1) An in vitro assessment of synbiotic efficacy in faecal culture using a pH controlled, anaerobic, temperature controlled cultures. The cultures were inoculated with faecal slurry of each of 6 healthy adults. The combinations included: • Faeces (prebiotic negative control) • Faeces+LR (synbiotic negative control) • Faeces+LR+GeOS (gentiooligosaccharides) • Faeces+LR+Cellb (cellobiose) • Faeces+LR+XOS (xylooligosaccharides) • Faeces+GeOS • Faeces+Cellb • Faeces+XOS • Feces+inulin (positive prebiotic control for test prebiotics) • Faeces+FOS (positive prebiotic control for test prebiotics) • Faeces+LR+inulin (positive prebiotic control for test synbiotics) • Faeces+LR+FOS (positive prebiotic control for test synbiotics)

Ato291 (Atopobium) = assay: FISH of commensal bacteria in pH controlled faecal culture, probe Ato291; assay type: cell-based, healthy adults; details: pH controlled anaerobic faecal culture, FIG. 25
Protocol: (§2) All vessels, run in parallel, were to be inoculated with the same faecal sample and the experiment repeated using a faecal sample from each of six different healthy donors. Samples were to be obtained at inoculation (0 h) and then at 8 and 24 h of fermentation for: determination of LR levels in faecal culture using qPCR; and determination of the impact of each intervention on commensal faecal microbiome composition using FISH to ensure novel prebiotic will not be fermented by undesirable bacteria and ensure selectivity in a complex, competitive culture environment. Analysis targeted numerically dominant and functionally significant faecal bacterial groups including Bacteroides, Clostridium, Eubacterium, Propionibacterium, Bifidobacterium, Lactobacillus, Faecalibacterium, Atopobium, and Desulfovibrio.
(§3) An in vitro assessment of synbiotic efficacy in faecal culture using a pH controlled, anaerobic, temperature controlled cultures. The cultures were inoculated with faecal slurry of each of 6 healthy adults. […]
(§4) Fluorescent in situ hybridisation (FISH) experiments were then conducted to investigate the impact on commensal gut microbiome bacterial populations in faecal culture and the fluorescently labelled micrographs are shown in FIG. 20. FISH is a fully quantitative methodology for determining bacterial concentrations at the genus and species level. […]

[2] = test system: gas producing members of the faecal microbiota; assay: Rate of gas and cumulative gas determination in non-pH controlled faecal culture; assay type: cell-based, healthy adults
Protocol: The aims of this experiment were to determine: (i) the total gas production over a 24 h fermentation period of each of carbohydrate of interest; (ii) the kinetics of gas production (rate) to evaluate the potential of increased abdominal discomfort in vivo upon the ingestion of the carbohydrates of interest; and (iii) the impact of using the selected carbohydrates in combination with LR on total and rate of gas production.
Determination of rate of gas was of particular importance as gas generation at specific time points rather than continuously at low or moderate levels may correlate with abdominal discomfort in vivo and important in relevance to consumer acceptability.
The experiments investigated the potential for gastrointestinal discomfort in vitro, through the determination of rate of gas and cumulative gas production in faecal culture. The cultures were non-pH controlled and six experimental runs were conducted using faeces from six different healthy adults. Headspace gas readings collected every 3 h over a 24 h period for rate of gas determination
The experimental design was as follows: • Faeces • Faeces+L. rhamnosus ATCC 53103 (negative control) • Faeces+Inulin HP (positive prebiotic control) • Faeces+Inulin HP+L. rhamnosus ATCC 53103 (positive synbiotic control) • Faeces+test carbohydrate • Faeces+test carbohydrate+L. rhamnosus ATCC 53103 Lactobacillus rhamnosus ATCC 53103 Test Dose Determination
Intervention dose used in the non-pH controlled gas determination experiments and the pH controlled faecal batch culture experiments was calculated based on the relative amounts of faecal inoculum and LR viable counts in the gut model (low dose, 0.75×10^4 cfu) and the relative concentrations of total bacteria to LR viable counts in the gut model (high dose, 5.36×10^4 cfu). Both doses were tested in the non-pH controlled gas determination faecal cultures to determine the possible role of LR in rate and cumulative gas production.

L. rhamnosus ATCC 53103 [3] = assay: qPCR determination of LR concentrations in anaerobic pH controlled faecal batch culture; assay type: cell-based, Lactobacillus rhamnosus; details: for LR concentration (growth) in faecal culture: pH controlled anaerobic faecal batch culture, 1% w/v substrate, LR 5.36×10^4 cfu
Protocol: Synbiotic potential of the selected oligosaccharides/blends was then to be determined in 24 h, anaerobic, pH and temperature controlled micro-scale faecal (10 ml working volume) faecal batch culture models.
The models had been optimised to work at 1% w/v test oligosaccharide concentration and carried out at pH6.8, which is relevant to the distal colon. Conditions in the distal colon (carbohydrate availability, very slow transit time) are more relevant to batch culture design. Fermentations were to be set up in parallel in identical conditions with the only variable being the test oligosaccharides. The following combinations were to be tested in each experimental run: • Faeces (prebiotic negative control) • Faeces+LR (synbiotic negative control) • Faeces+LR+GeOS (gentiooligosaccharides) • Faeces+LR+Cellb (cellobiose) • Faeces+LR+XOS (xylooligosaccharides) • Faeces+GeOS • Faeces+Cellb • Faeces+XOS • Feces+inulin (positive prebiotic control for test prebiotics) • Faeces+FOS (positive prebiotic control for test prebiotics) • Faeces+LR+inulin (positive prebiotic control for test synbiotics) • Faeces+LR+FOS (positive prebiotic control for test synbiotics)
as §2, with “Samples were to be obtained at inoculation (0 h) and then at 8 and 24 h of fermentation for: determination of LR” left out
as §1
No commensal LR was detected in the prebiotic only cultures (data not shown).
The primers for the real-time PCR determination was as follows: […]

[4] = test system: Bacteroides/Prevotella (Bac303); assay: FISH of commensal bacteria in pH controlled faecal culture, probe Bac303; assay type: cell-based, healthy adults; details: pH controlled anaerobic faecal culture
Protocol: as §2, §3, §4

[5] = test system: Lactobacillus/Enterococcus (Lab158); assay: FISH of commensal bacteria in pH controlled faecal culture, probe Lab158; assay type: cell-based, healthy adults
Protocol: as §2, §3, §4

[6] = test system: Lactobacillus plantarum 2830 (ECGC 13110402); assay: Pure culture growth of Lactobacillus plantarum 2830 (LP-LDL) on carbohydrate sources; assay type: cell-based; details: modified MRS, glucose (1% wt/vol) substituted, anaerobic, 37° C., OD 620 nm
Protocol: Similar growth experiments to Example 1 above were conducted on Lactobacillus plantarum 2830 (ECGC 13110402) on a range of substrates including, MRS+LP, Glucose, Lactose, LP GOS, alphaGOS (a proprietary GOS product), Raffinose, Galactose, Cellobiose, FOS (short chain), Sucrose, GOS I (a proprietary GOS product), GOS II (a proprietary GOS product), GOS III (a proprietary GOS product) and Gentiooligosaccharides (GeOS). […] Experiments were carried out under anaerobic conditions on a 96-well microtiter plate system (FLUOstar Omega, BMG LABTECH) in a final volume of 200 μL using an inoculum size 10% (w/v), previously diluted to obtain an initial OD620 nm=0.2. Incubation was conducted under anaerobic conditions at 37° C. with interval shaking at 500 rpm every 5 min. Optical density measurements at 620 nm were employed to assess microbial growth.

L. rhamnosus ATCC 53103 [7] = assay: Pure culture growth screening of L. rhamnosus ATCC 53103 on oligo/polysaccharides; assay type: cell-based, Lactobacillus rhamnosus
From the text: Commercially available prebiotics and other oligo and polysaccharides were first screened using a fast throughput automated growth culture system under anaerobic conditions to establish ability to support LR growth and define growth rates (1% w/v). The following test substrates had been initially identified for further consideration: Short chain fructooligosaccharides (scFOS), oligofructose P95 (FOS), Orafti ST, Orafti HP, Synergy 1, Bioecolians (glucooligosaccharides), gentiooligosaccharides, fucosyllactose, ß glucan (low/medium/high molecular weight; derived from oats), yeast ß glucan, arabinoxylan, xylooligosaccharides, caseinoglycomacropeptide (cgmp), raffinose, stachyose and Bio-Mos.
The aim of the experiment was to investigate the growth behavior of L. rhamnosus ATCC 53103 under a wide variety of commercially available, oligo and polysaccharides and to evaluate impact of test substrate physical characteristics on screening process and investigate growth on GOS synthesized by L. rhamnosus GR1 β-galactosidases. Results would be evaluated on the basis of: microbial growth (OD-Fermentation time); growth rate [μmax(h^−1)]; and change in optical density (max-min). Growth preferences of Lactobacillus rhamnosus ATCC 53103 would be used to determine target structures and carbohydrates for use as prebiotics for L. rhamnosus species or strains. […]

Row | Compound | LR activity (organic acid synthesis) (L. rhamnosus ATCC 53103 [1]) | Ato291 concentrations (Ato291 (Atopobium)) | rate of gas production ([2]; 24 h non-pH controlled faecal culture, readings every 3 h, relative to inulin) | cumulative gas production ([2]; 24 h non-pH controlled faecal culture, relative to inulin) | donors sensitive to the test oligosaccharide (total gas production) ([2]; 24 h non-pH controlled faecal fermentation, six faecal donors) | volunteers showing an increase of L. rhamnosus ATCC 53103 concentrations (L. rhamnosus ATCC 53103 [3]; 0, 10 and 24 h pH controlled faecal batch culture, six volunteers, qPCR) | LR concentration (growth) in faecal culture (L. rhamnosus ATCC 53103 [3]; qPCR) | LR concentration (growth) in faecal culture (L. rhamnosus ATCC 53103 [3]; qPCR, listed as Cellobiose) | dependence of the effect on LR on faecal donor (L. rhamnosus ATCC 53103 [3]; pH controlled faecal batch cultures, six donors) | Bacteroides/Prevotella (Bac303) concentration [4] | responders within the 6 faecal donors (Lab158) ([5]; compared to the positive controls (inulin and FOS)) | Lab158 (Lactobacillus/Enterococcus) concentration ([5]; pH controlled anaerobic faecal culture, six healthy adults, FISH) | growth rates of LP-LDL [6] | growth yields of LP-LDL [6] | lag phase (L. rhamnosus ATCC 53103 [7]; pure culture growth curves, 1% (w/v) substrate, FIG. 9) | growth of LR in pure culture (L. rhamnosus ATCC 53103 [7]; pure culture, modified MRS, 1% w/v test carbohydrate) | donors sensitive to the test oligosaccharide (total gas production) [2] | rate of gas production [2] | tolerance by donors (total gas and rate of gas) [2]
1 | O=C[C@H](O)[C@@H](O)[C@H](O[C@@H]1O[C@H](CO)[C@@H](O)[C@H](O)[C@H]1O)[C@H](O)CO [cellobiose] | mediated increases in LR concentration and activity | some increases | comparable to that of inulin | comparable to that of inulin | Donors 4 and 7; also recorded: donor 5 | Five out of the six | growth of LR | best growth substrate for LR; also recorded: increases in LR concentration | not dependent on faecal donor enterotype | some impact | More responders | significant increase | highest growth rates | highest growth yields | notably longer lag phase | can grow in pure culture | – | – | –
2 | gentiooligosaccharides [GeOS] | – | – | – | – | – | – | – | – | – | – | – | – | – | – | – | – | Donors 4 and 7 | comparable to that of inulin | tolerated the best by the majority of donors
3 | xylooligosaccharides [XOS] | – | – | – | – | – | – | – | – | – | – | – | – | – | – | – | – | Donors 4 and 7 | comparable to that of inulin | tolerated the best by the majority of donors
